{"source": "ChEMBL document CHEMBL3272271", "about": "“Folate antagonists. 13. 2,4-Diamino-6-](alpha,alpha,alpha-trifluoro-m-tolyl)thio]quinazoline and related 2,4-diamino-6-[(phenyl- and naphthyl)thio]quinazolines, a unique class of antimetabolites with extraordinary antimalarial and antibacterial effects” (J Med Chem, 1978)", "key": {"Enterococcus faecalis": {"system": "Enterococcus faecalis", "assay": "Antibacterial activity against Streptococcus faecalis MGH-2 by gradient plate test", "format": "functional"}, "Staphylococcus aureus [1]": {"system": "Staphylococcus aureus", "assay": "Antibacterial activity against Staphylococcus aureus UC-96 by gradient plate test", "format": "functional"}, "Staphylococcus aureus [2]": {"system": "Staphylococcus aureus", "assay": "Antibacterial activity against drug-resistant Staphylococcus aureus S18713 by gradient plate test", "format": "functional"}, "Pseudomonas aeruginosa": {"system": "Pseudomonas aeruginosa", "assay": "Antibacterial activity against Pseudomonas aeruginosa 28 by gradient plate test", "format": "functional"}, "Escherichia coli": {"system": "Escherichia coli", "assay": "Antibacterial activity against Escherichia coli Vogel by gradient plate test", "format": "functional"}, "Shigella sonnei": {"system": "Shigella sonnei", "assay": "Antibacterial activity against Shigella sonnei C-10 by gradient plate test", "format": "functional"}, "[3]": {"system": "Mycobacterium tuberculosis", "assay": "Antibacterial activity against Mycobacterium tuberculosis H37Ra by gradient plate test", "format": "functional"}, "Plasmodium gallinaceum [4]": {"system": "Plasmodium gallinaceum", "assay": "Antimalarial activity against sporozoite-induced Plasmodium gallinaceum infected in white leghorn chicken assessed as disease cure from parasite infection at 480 mg/kg, sc administered 72 hrs after infection", "format": "functional, organism-based", "set-up": "dose 480 mg/kg"}, "Gallus gallus [5]": {"system": "Gallus gallus", "assay": "Toxicity in sporozoite-induced Plasmodium gallinaceum infected white leghorn chicken assessed as mortality at 480 mg/kg, sc administered 72 hrs after infection measured up to 6 days", "format": "organism-based", "set-up": "dose 480 mg/kg, route subcutaneous", "settings": "in vivo"}, "Plasmodium gallinaceum [6]": {"system": "Plasmodium gallinaceum", "assay": "Antimalarial activity against sporozoite-induced Plasmodium gallinaceum infected in white leghorn chicken assessed as disease cure from parasite infection at 240 mg/kg, sc administered 72 hrs after infection", "format": "functional, organism-based", "set-up": "dose 240 mg/kg"}, "Gallus gallus [7]": {"system": "Gallus gallus", "assay": "Toxicity in sporozoite-induced Plasmodium gallinaceum infected white leghorn chicken assessed as mortality at 240 mg/kg, sc administered 72 hrs after infection measured up to 6 days", "format": "organism-based", "set-up": "dose 240 mg/kg, route subcutaneous", "settings": "in vivo"}, "Plasmodium gallinaceum [8]": {"system": "Plasmodium gallinaceum", "assay": "Antimalarial activity against sporozoite-induced Plasmodium gallinaceum infected in white leghorn chicken assessed as disease cure from parasite infection at 120 mg/kg, sc administered 72 hrs after infection", "format": "functional, organism-based", "set-up": "dose 120 mg/kg"}, "Gallus gallus [9]": {"system": "Gallus gallus", "assay": "Toxicity in sporozoite-induced Plasmodium gallinaceum infected white leghorn chicken assessed as mortality at 120 mg/kg, sc administered 72 hrs after infection measured up to 6 days", "format": "organism-based", "set-up": "dose 120 mg/kg, route subcutaneous", "settings": "in vivo"}, "Plasmodium gallinaceum [10]": {"system": "Plasmodium gallinaceum", "assay": "Antimalarial activity against sporozoite-induced Plasmodium gallinaceum infected in white leghorn chicken assessed as disease cure from parasite infection at 60 mg/kg, sc administered 72 hrs after infection", "format": "functional, organism-based", "set-up": "dose 60 mg/kg"}, "Gallus gallus [11]": {"system": "Gallus gallus", "assay": "Toxicity in sporozoite-induced Plasmodium gallinaceum infected white leghorn chicken assessed as mortality at 60 mg/kg, sc administered 72 hrs after infection measured up to 6 days", "format": "organism-based", "set-up": "dose 60 mg/kg, route subcutaneous", "settings": "in vivo"}, "Plasmodium gallinaceum [12]": {"system": "Plasmodium gallinaceum", "assay": "Antimalarial activity against sporozoite-induced Plasmodium gallinaceum infected in white leghorn chicken assessed as disease cure from parasite infection at 30 mg/kg, sc administered 72 hrs after infection", "format": "functional, organism-based", "set-up": "dose 30 mg/kg"}, "Gallus gallus [13]": {"system": "Gallus gallus", "assay": "Toxicity in sporozoite-induced Plasmodium gallinaceum infected white leghorn chicken assessed as mortality at 30 mg/kg, sc administered 72 hrs after infection measured up to 6 days", "format": "organism-based", "set-up": "dose 30 mg/kg, route subcutaneous", "settings": "in vivo"}, "Plasmodium gallinaceum [14]": {"system": "Plasmodium gallinaceum", "assay": "Antimalarial activity against sporozoite-induced Plasmodium gallinaceum infected in white leghorn chicken assessed as disease cure from parasite infection at 15 mg/kg, sc administered 72 hrs after infection", "format": "functional, organism-based", "set-up": "dose 15 mg/kg"}, "Gallus gallus [15]": {"system": "Gallus gallus", "assay": "Toxicity in sporozoite-induced Plasmodium gallinaceum infected white leghorn chicken assessed as mortality at 15 mg/kg, sc administered 72 hrs after infection measured up to 6 days", "format": "organism-based", "set-up": "dose 15 mg/kg, route subcutaneous", "settings": "in vivo"}, "Plasmodium berghei [16]": {"system": "Plasmodium berghei", "assay": "Antimalarial activity against Plasmodium berghei infected in mouse assessed as increase in mean survival days of host at 80 mg/kg, sc administered 72 hrs after infection relative to control", "format": "functional", "settings": "route subcutaneous"}, "Plasmodium berghei [17]": {"system": "Plasmodium berghei", "assay": "Antimalarial activity against Plasmodium berghei infected in mouse assessed as increase in mean survival days of host at 40 mg/kg, sc administered 72 hrs after infection relative to control", "format": "functional", "settings": "route subcutaneous"}, "Plasmodium berghei [18]": {"system": "Plasmodium berghei", "assay": "Antimalarial activity against Plasmodium berghei infected in mouse assessed as increase in mean survival days of host at 20 mg/kg, sc administered 72 hrs after infection relative to control", "format": "functional", "settings": "route subcutaneous"}, "Plasmodium berghei [19]": {"system": "Plasmodium berghei", "assay": "Antimalarial activity against Plasmodium berghei infected in mouse assessed as increase in mean survival days of host at 10 mg/kg, sc administered 72 hrs after infection relative to control", "format": "functional", "settings": "route subcutaneous"}, "Plasmodium berghei [20]": {"system": "Plasmodium berghei", "assay": "Antimalarial activity against Plasmodium berghei infected in mouse assessed as disease cure from parasite infection at 640 mg/kg, sc administered 72 hrs after infection", "format": "functional, organism-based", "set-up": "dose 640 mg/kg"}, "Plasmodium berghei [21]": {"system": "Plasmodium berghei", "assay": "Antimalarial activity against Plasmodium berghei infected in mouse assessed as disease cure from parasite infection at 320 mg/kg, sc administered 72 hrs after infection", "format": "functional, organism-based", "set-up": "dose 320 mg/kg"}, "Plasmodium berghei [22]": {"system": "Plasmodium berghei", "assay": "Antimalarial activity against Plasmodium berghei infected in mouse assessed as disease cure from parasite infection at 160 mg/kg, sc administered 72 hrs after infection", "format": "functional, organism-based", "set-up": "dose 160 mg/kg"}, "Plasmodium berghei [23]": {"system": "Plasmodium berghei", "assay": "Antimalarial activity against Plasmodium berghei infected in mouse assessed as disease cure from parasite infection at 80 mg/kg, sc administered 72 hrs after infection", "format": "functional, organism-based", "set-up": "dose 80 mg/kg"}}, "note": "Calls of active or inactive are those of the source. No cut-off for these calls is given here.", "data": [{"molecule": "Cc1cc(Sc2ccc3nc(N)nc(N)c3c2)ccc1Br", "values": [{"measurement": "MIC", "setting": "Enterococcus faecalis", "result": 10, "unit": "mg/L"}, {"measurement": "MIC", "setting": "Staphylococcus aureus [1]", "result": 5, "unit": "mg/L"}, {"measurement": "MIC", "setting": "Staphylococcus aureus [2]", "result": 10, "unit": "mg/L"}, {"measurement": "MIC", "setting": "Pseudomonas aeruginosa", "result": "> 25", "unit": "mg/L"}, {"measurement": "MIC", "setting": "Escherichia coli", "result": 20, "unit": "mg/L"}, {"measurement": "MIC", "setting": "Shigella sonnei", "result": 20, "unit": "mg/L"}, {"measurement": "MIC", "setting": "[3]", "result": "> 25", "unit": "mg/L"}, {"measurement": "Activity", "setting": "Plasmodium gallinaceum [4]", "result": "Active"}, {"measurement": "Activity", "setting": "Gallus gallus [5]", "result": "Toxic"}, {"measurement": "Activity", "setting": "Plasmodium gallinaceum [6]", "result": "Active"}, {"measurement": "Activity", "setting": "Gallus gallus [7]", "result": "Toxic"}, {"measurement": "Activity", "setting": "Plasmodium gallinaceum [8]", "result": "Active"}, {"measurement": "Activity", "setting": "Gallus gallus [9]", "result": "Toxic"}, {"measurement": "Activity", "setting": "Plasmodium gallinaceum [10]", "result": "Active"}, {"measurement": "Activity", "setting": "Gallus gallus [11]", "result": "Toxic"}, {"measurement": "Activity", "setting": "Plasmodium gallinaceum [12]", "result": "Active"}, {"measurement": "Activity", "setting": "Gallus gallus [13]", "result": "Toxic"}, {"measurement": "Activity", "setting": "Plasmodium gallinaceum [14]", "result": "Active"}, {"measurement": "Activity", "setting": "Gallus gallus [15]", "result": "Toxic"}, {"measurement": "MST", "setting": "Plasmodium berghei [16]", "result": 11.9, "unit": "days"}, {"measurement": "MST", "setting": "Plasmodium berghei [17]", "result": 7.7, "unit": "days"}, {"measurement": "MST", "setting": "Plasmodium berghei [18]", "result": 3.5, "unit": "days"}, {"measurement": "MST", "setting": "Plasmodium berghei [19]", "result": 1.9, "unit": "days"}, {"measurement": "Activity", "setting": "Plasmodium berghei [20]", "result": "Active"}, {"measurement": "Activity", "setting": "Plasmodium berghei [21]", "result": "Active"}, {"measurement": "Activity", "setting": "Plasmodium berghei [22]", "result": "Active"}, {"measurement": "Activity", "setting": "Plasmodium berghei [23]", "result": "Active"}]}]}
